# Test results reported in ChEMBL document CHEMBL5131471, “Design, synthesis and mechanism studies of novel dual PARP1/BRD4 inhibitors against pancreatic cancer” (Eur J Med Chem, 2022).
# Activity calls are given as the source filed them. The rule behind the calls is not given here.
# Columns and labels:
# [1] = tested on: SW1990; assay: Induction of cell cycle arrest in human SW1990 cells assessed as accumulation of cells at G0/G1 phase at 4 uM incubated for 4 days by propidium iodide staining based flow cytometry (reference value: 64.79%); format: functional; settings: time 4 day
# [2] = tested on: SW1990; assay: Effect on c-Myc gene expression in human SW1990 cells at 4 uM by Q-PCR analysis; format: functional, cell-based
# [3] = tested on: SW1990; assay: Induction of apoptosis in human SW1990 cells assessed as necrotic cells at 1 uM measured after 4 days in presence of 3 uM Olaparib by Annexin V-FITC and propidium iodide staining based flow cytometry (reference value: 2.45%); format: functional; settings: time 4 day
# [4] = tested on: SW1990; assay: Effect on CCNB1 gene expression in human SW1990 cells at 1 uM in presence of Olaparib by Q-PCR analysis; format: functional, cell-based
# [5] = Toxicity in nude mouse xenografted with human SW1990 cells assessed as liver damage at 15 mg/kg, ip administered for 28 days in presence of 45 mg/kg Olaparib by H and E staining based fluorescence microscopic analysis; format: organism-based; settings: in vivo, 672 h, time 28 day
# [6] = tested on: SW1990; assay: Effect on CDK1 to 2 gene expression in human SW1990 cells at 1 uM in presence of Olaparib by Q-PCR analysis; format: functional, cell-based
# [7] = organism: Mus musculus; settings: dose 15.0 mg/kg, route ip, time 28.0 day
# [8] = Toxicity in nude mouse xenografted with human SW1990 cells assessed as heart damage at 15 mg/kg, ip administered for 28 days in presence of 45 mg/kg Olaparib by H and E staining based fluorescence microscopic analysis; format: organism-based; settings: in vivo, 672 h, time 28 day
# [9] = tested on: SW1990; assay: Induction of cell cycle arrest in human SW1990 cells assessed as accumulation of cells at G0/G1 phase at 1 uM incubated for 4 days in presence of 3 uM Olaparib by propidium iodide staining based flow cytometry (reference value: 64.79%); format: functional; settings: time 4 day
# [10] = Toxicity in nude mouse xenografted with human SW1990 cells assessed as heart damage at 15 mg/kg, ip administered for 28 days by H and E staining based fluorescence microscopic analysis; format: organism-based; settings: in vivo, 672 h, time 28 day
# [11] = tested on: SW1990; assay: Induction of apoptosis in human SW1990 cells assessed as early apoptotic cells at 4 uM measured after 4 days by Annexin V-FITC and propidium iodide staining based flow cytometry (reference value: 1.62%); format: functional; settings: time 4 day
# [12] = tested on: SW1990; assay: Effect on MDC1 gene expression in human SW1990 cells at 4 uM by Q-PCR analysis; format: functional, cell-based
# [13] = tested on: SW1990; assay: Upregulation of Rad51 expression in human SW1990 cells at 6 uM measured after 4 days by Western blot analysis; format: functional, cell-based; settings: time 4.0 day
# [14] = tested on: Mus musculus; assay: Upregulation of CDC25B expression in nude mouse xenografted with human SW1990 cells at 45 mg/kg, ip measured after 4 days by Q-PCR analysis; format: functional, organism-based; settings: time 4.0 day
# [15] = tested on: SW1990; assay: Effect on CDC25B gene expression in human SW1990 cells at 6 uM by Q-PCR analysis; format: functional, cell-based
# [16] = tested on: SW1990; assay: Effect on BRCA2 gene expression in human SW1990 cells at 6 uM by Q-PCR analysis; format: functional, cell-based
# [17] = tested on: SW1990; assay: Effect on FOXM1 gene expression in human SW1990 cells at 6 uM by Q-PCR analysis; format: functional, cell-based
# [18] = tested on: SW1990; assay: Induction of Rad51 accumulation in nucleus of human SW1990 cells at 6 uM measured after 4 days by Western blot analysis; format: functional, cell-based; settings: time 4.0 day
# [19] = tested on: SW1990; assay: Induction of apoptosis in human SW1990 cells assessed as necrotic cells at 6 uM measured after 4 days by Annexin V-FITC and propidium iodide staining based flow cytometry (reference value: 2.45%); format: functional; settings: time 4 day
# [20] = tested on: SW1990; assay: Induction of DNA damage in human SW1990 cells assessed as increase in tail DNA at 6 uM incubated for 4 days by comet assay; format: functional, cell-based; settings: time 4.0 day
# [21] = Toxicity in nude mouse xenografted with human SW1990 cells assessed as lung damage at 45 mg/kg, ip administered for 28 days by H and E staining based fluorescence microscopic analysis; format: organism-based; settings: in vivo, 672 h, time 28 day
# [22] = tested on: SW1990; assay: Upregulation of CCNB1 expression in human SW1990 cells at 6 uM measured after 4 days by Western blot analysis; format: functional, cell-based; settings: time 4.0 day
# [23] = tested on: SW1990; assay: Downregulation of BRD4 expression in human SW1990 cells at 2 uM measured after 4 days by Western blot analysis; format: functional, cell-based; settings: time 4.0 day
# [24] = tested on: Mus musculus; assay: Inhibition of E2F2 expression in nude mouse xenografted with human SW1990 cells at 30 mg/kg, ip measured after 4 days by Western blot analysis; format: functional, organism-based; settings: time 4.0 day
# [25] = Toxicity in nude mouse xenografted with human SW1990 cells assessed as lung damage at 30 mg/kg, ip administered for 28 days by H and E staining based fluorescence microscopic analysis; format: organism-based; settings: in vivo, 672 h, time 28 day
# [26] = tested on: SW1990; assay: Induction of apoptosis in human SW1990 cells assessed as late apoptotic cells at 1 uM measured after 4 days by Annexin V-FITC and propidium iodide staining based flow cytometry (reference value: 7.23%); format: functional; settings: time 4 day
# [27] = tested on: SW1990; assay: Effect on BRCA2 gene expression in human SW1990 cells at 1 to 2 uM by Q-PCR analysis; format: functional, cell-based; settings: dose 1-2 µM
# [28] = tested on: SW1990; assay: Inhibition of CCND1 protein expression in human SW1990 cells at 1 to 2 uM measured after 4 days by Western blot analysis; format: functional, cell-based; settings: dose 1-2 µM, time 4.0 day
# [29] = Toxicity in nude mouse xenografted with human SW1990 cells assessed as liver damage at 30 mg/kg, ip administered for 28 days by H and E staining based fluorescence microscopic analysis; format: organism-based; settings: in vivo, 672 h, time 28 day
# [30] = tested on: Mus musculus; assay: Inhibition of CDK6 expression in nude mouse xenografted with human SW1990 cells at 30 mg/kg, ip measured after 4 days by Q-PCR analysis; format: functional, organism-based; settings: time 4.0 day
# [31] = tested on: SW1990; assay: Inhibition of colony formation in human SW1990 cells at 1 uM after 14 days by crystal violet staining based microscopic analysis; format: functional, cell-based; settings: time 14.0 day
# [32] = tested on: Mus musculus; assay: Inhibition of CDK1 expression in nude mouse xenografted with human SW1990 cells at 30 mg/kg, ip measured after 4 days by Q-PCR analysis; format: functional, organism-based; settings: time 4.0 day
# [33] = tested on: SW1990; assay: Downregulation of PARP1 expression in human SW1990 cells at 2 uM measured after 4 days by Western blot analysis; format: functional, cell-based; settings: time 4.0 day
# [34] = tested on: Mus musculus; assay: Inhibition of homologous recombinant repair in nude mouse xenografted with human SW1990 cells assessed as reversal of olaparib-induced ALDH1A1 expression at 30 mg/kg, ip after 4 days by Western blot analysis; format: functional, organism-based; settings: time 4.0 day
# [35] = tested on: SW1990; assay: Inhibition of homologous recombinant repair in human SW1990 cells assessed as reversal of Olaparib-induced FOXM1 expression at 1 to 2 uM after 4 days by Western blot analysis; format: functional, cell-based; settings: dose 1-2 µM, time 4.0 day
# [36] = tested on: Mus musculus; assay: Inhibition of PARP1 expression in nude mouse xenografted with human […] cells at 30 mg/kg, ip administered for 28 days by Q-PCR analysis; format: functional, organism-based; settings: time 28.0 day
# [37] = target: Bromodomain-containing protein 4 (Homo sapiens, UniProt O60885); assay: Inhibition of BRD4-BD1/2 (unknown origin)
# [38] = tested on: Mus musculus; assay: Inhibition of CDK1 expression in nude mouse xenografted with human SW1990 cells at 30 mg/kg, ip measured after 4 days by Western blot analysis; format: functional, organism-based; settings: time 4.0 day
structure (smiles),measurement,setting,value
Cc1sc2c(c1C)C(c1ccc(Cl)cc1)=N[C@@H](CC(=O)OC(C)(C)C)c1nnc(C)n1-2,Activity,[1],75.06%
same,Activity,[2],Active
same,Activity,[3],5.76%
same,Activity,[4],Active
same,Activity,[5],Non-Toxic
same,Activity,[6],Active
same,inhibition,[7],Active
same,Activity,[8],Non-Toxic
same,Activity,[9],71.53%
same,Activity,[10],Non-Toxic
same,Activity,[11],1.73%
same,Activity,[12],Active
O=C(c1cc(Cc2n[nH]c(=O)c3ccccc23)ccc1F)N1CCN(C(=O)C2CC2)CC1 [OLAPARIB],Activity,[13],Active
same,Activity,[14],Active
same,Activity,[15],Active
same,Activity,[16],Active
same,Activity,[17],Active
same,Activity,[18],Active
same,Activity,[19],1.66%
same,Activity,[20],Active
same,Activity,[21],Non-Toxic
same,Activity,[22],Active
Cc1noc(C)c1-c1ccc2c(c1)C(c1ccccc1)N(Cc1nc3c(C(N)=O)cccc3[nH]1)C(=O)N2C (stereo not drawn),Activity,[23],Active
same,inhibition,[24],Active
same,Activity,[25],Non-Toxic
same,Activity,[26],33.6%
same,Activity,[27],Active
same,inhibition,[28],Active
same,Activity,[29],Non-Toxic
same,inhibition,[30],Active
same,inhibition,[31],Active
same,inhibition,[32],Active
same,Activity,[33],Active
same,inhibition,[34],Active
same,inhibition,[35],Active
same,inhibition,[36],Active
same,IC50,[37],202 nM
same,inhibition,[38],Active
